Results reported in patent US20260356851A1, “TRICYCLIC COMPOUNDS AND USES THEREOF” (HUTCHMED LIMITED, priority 2023, published 2026).

Experiments:
Assay type in all cases: cell-based
[1] = target: T1, pERK1/2 (Thr202/Tyr204), PANC-1 (KRAS G121D) (Homo sapiens, UniProt P01116, G12D); experiment: Assay of intracellular pERK1/2 (Thr202/Tyr204) phosphorylation in PANC-1 cells (KRAS G12D); conditions: pERK1/2, 2 days, read-out: PANC-1 (KRAS G12D) IC50
T1 construct: pERK1/2 HTRF read-out
Method in brief: (§1)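 HTRF detection of Thr202/Tyr204-phosphorylated ERK1/2 (665/615 nm ratio) in lysates from cells treated 2 days with serially 3-fold diluted compound.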

[2] = target: T2, pERK1/2 (Thr202/Tyr204), NCI-1H358 (KRAS G12C) (Homo sapiens, UniProt P01116, G12C); experiment: Assay of intracellular pERK1/2 (Thr202/Tyr204) phosphorylation in NCI-H358 cells (KRAS G12C); conditions: pERK1/2, 2 days, read-out: NCI-H358 (KRAS G12C) IC50
T2 construct: pERK1/2 HTRF read-out
T2 sequence (P01116 1-188 isoform P01116-2 G12C): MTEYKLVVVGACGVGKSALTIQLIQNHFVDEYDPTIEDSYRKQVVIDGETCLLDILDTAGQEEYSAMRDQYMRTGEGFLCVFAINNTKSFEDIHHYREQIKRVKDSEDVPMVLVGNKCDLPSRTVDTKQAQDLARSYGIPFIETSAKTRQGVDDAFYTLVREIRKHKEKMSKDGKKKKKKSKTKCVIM
Method in brief: as §1

[3] = target: T3, pERK1/2 (Thr202/Tyr204), NCI-1H441 (KRAS G12V) (Homo sapiens, UniProt P01116, G12V); experiment: Assay of intracellular pERK1/2 (Thr202/Tyr204) phosphorylation in NCI-H441 cells (KRAS G12V); conditions: pERK1/2, 2 days, read-out: NCI-H441 (KRAS G12V) IC50
T3 construct: pERK1/2 HTRF read-out
T3 sequence (P01116 1-188 isoform P01116-2 G12V): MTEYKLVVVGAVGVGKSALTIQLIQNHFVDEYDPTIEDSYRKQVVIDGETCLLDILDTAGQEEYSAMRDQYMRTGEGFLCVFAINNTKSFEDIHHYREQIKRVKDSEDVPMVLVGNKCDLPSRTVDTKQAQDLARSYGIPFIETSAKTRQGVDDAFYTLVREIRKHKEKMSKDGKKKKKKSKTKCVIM
Method in brief: as §1

T1 sequence (P01116 1-188 isoform P01116-2 G12D): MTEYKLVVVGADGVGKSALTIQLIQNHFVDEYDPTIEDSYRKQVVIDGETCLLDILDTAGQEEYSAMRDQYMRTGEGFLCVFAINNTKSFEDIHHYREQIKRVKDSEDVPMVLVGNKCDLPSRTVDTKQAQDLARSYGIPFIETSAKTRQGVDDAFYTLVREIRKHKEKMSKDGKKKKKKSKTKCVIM

Structure (SMILES)	IC50 [1]	IC50 [2]	IC50 [3]
Cc1cc(N)cc(-c2nc3c4c(nc(OC[C@@]56CCCN5C[C@H](F)C6)nc4c2F)N(C(C)c2cccnc2N)[C@@H](C)CO3)c1C(F)(F)F (single isomer, unassigned) [Compound 267]	0.2 nM	0.3 nM	0.6 nM
CC(c1cccnc1N)N1CCOc2nc(-c3cc(O)cc(F)c3C3CC3)c(F)c3nc(OC[C@@H]4CC(F)(F)CN4C)nc1c23 (single isomer, unassigned) [Compound 49, 3-(10-((R or S)-1-(2-aminopyridin-3-yl)ethyl)-2-(((S)-4,4-difluoro-1-methylpyrrolidin-2-yl)methoxy)-4-fluoro-9,10-dihydro-8H-7-oxa-1,3,6,10-tetraacyclohepta[de]naphthalen-5-yl)-4-cyclopropyl-5-fluorophenol]	557 nM	15 nM	22 nM
CC(c1cccnc1N)N1c2nc(OC[C@@]34CCCN3C[C@H](F)C4)nc3c(F)c(-c4cc(N)cc(Cl)c4C4CC4)nc(c23)OC[C@@H]1C (stereo partly drawn) [Compound 305]	0.3 nM	0.3 nM	0.6 nM
Cc1cc(N)cc(-c2nc3c4c(nc(OC[C@@H]5CCCN5C)nc4c2F)N(C(C)c2cccnc2N)CCO3)c1C(F)(F)F (single isomer, unassigned) [Compound 76, 3-((R or S)-1-(5-(5-amino-3-methyl-2-(trifluoromethyl)phenyl)-4-fluoro-2-(((S)-1-methylpyrrolidin-2-yl)methoxy)-8,9-dihydro-10H-7-oxa-1,3,6,10-tetraazacyclohepta[de]naphthalen-10-yl)ethyl)pyridin-2-amine]	18 nM	0.5 nM	0.7 nM
Cc1cc(N)nc(-c2nc3c4c(nc(OC[C@@]56CCCN5C[C@H](F)C6)nc4c2F)N(C(C)c2cccnc2N)[C@@H](C)CO3)c1C(F)(F)F (stereo partly drawn) [Compound 326, (*)6-((9S)-10-(1-(2-aminopyridin-3-yl)ethyl)-4-fluoro-2-(((2R,7aS)-2-fluorotetrahydro-1H-pyrrolizin-7a(5H)-yl)methoxy)-9-methyl-9,10-dihydro-8H-7-oxa-1,3,6,10-tetraazacyclohepta[de]naphthalen-5-yl)-4-methyl-5-(trifluoromethyl)pyridin-2-amine]	3 nM	1 nM	3 nM
Cc1c(C(F)(F)F)c(-c2nc3c4c(nc(OC[C@@]56CCCN5C[C@H](F)C6)nc4c2F)N(C(C)c2cccnc2N)[C@@H](C)CO3)c2cn[nH]c2c1F (stereo partly drawn) [Compound 363]	0.3 nM	0.2 nM	0.3 nM
CC(c1cccnc1N)N1CCOc2nc(-c3cc(N)cc(F)c3C(F)(F)F)c(F)c3nc(OC[C@@]45CCCN4C[C@H](F)C5)nc1c23 (single isomer, unassigned) [Compound 88, 3-((R or S)-1-(5-(5-amino-3-fluoro-2-(trifluoromethyl)phenyl)-4-fluoro-2-(((2R,7aS)-2-fluorotetrahydro-1H-pyrrolizin-7a(5H)-yl)methoxy)-8,9-dihydro-10H-7-oxa-1,3,6,10-tetraazacyclohepta[de]naphthalen-10-yl)ethyl)pyridin-2-amine]	3 nM	0.4 nM	1 nM
Cc1c(C(F)(F)F)c(-c2nc3c4c(nc(OC[C@@]56CCCN5C[C@H](F)C6)nc4c2F)N(C(C)c2cccnc2N)[C@@H](C)CO3)c2c(C)n[nH]c2c1F (stereo partly drawn) [Compound 379]	0.1 nM	0.2 nM	0.3 nM
Cc1cc2[nH]ncc2c(-c2nc3c4c(nc(O)nc4c2F)N(C(C)c2cccnc2N)CCO3)c1C (stereo not drawn) [Compound 3, 10-(1-(2-Aminopyridin-3-yl)ethyl)-5-(5,6-dimethyl-1H-indazol-4-yl)-4-fluoro-9,10-dihydro-8H-7-oxa-1,3,6,10-tetraazacyclohepta[de]naphthalen-2-ol]	> 1000 nM	> 1000 nM	> 1000 nM
CC(c1cccnc1N)N1CCOc2nc(-c3cc(N)c(F)cc3C(F)(F)F)c(F)c3nc(OC[C@@]45CCCN4C[C@H](F)C5)nc1c23 (single isomer, unassigned) [Compound 145, 3-((R or S)-1-(5-(5-amino-4-fluoro-2-(trifluoromethyl)phenyl)-4-fluoro-2-(((2R,7aS)-2-fluorotetrahydro-1H-pyrrolizin-7a(5H)-yl)methoxy)-8,9-dihydro-10H-7-oxa-1,3,6,10-tetraazacyclohepta[de]naphthalen-10-yl)ethyl)pyridin-2-amine]	> 100 nM	14 nM	51 nM

Results, then the molecule that gave them:

IC50 [1]	IC50 [2]	IC50 [3]	Structure (SMILES)
347 nM	> 1000 nM	> 1000 nM	COc1ccc(C(F)(F)F)cc1-c1nc2c3c(nc(OC[C@@]45CCCN4C[C@H](F)C5)nc3c1F)N(C(C)c1cccnc1N)CCO2 (stereo partly drawn) [Compound 47]
26 nM	1 nM	2 nM	Cc1cc(N)cc(-c2nc3c4c(nc(OC[C@@H]5CCCN5C)nc4c2F)N(C(C)c2cccnc2N)CCO3)c1C(F)(F)F (stereo partly drawn) [Compound 65]
> 100 nM	55 nM	> 100 nM	Cc1cc(N)cc(-c2nc3c4c(nc(OC[C@@H]5C[C@@H](F)CN5C)nc4c2F)N(C(C)c2cccnc2N)[C@@H](C)CO3)c1C(F)(F)F (single isomer, unassigned) [Compound 283, 3-((R or S)-1-((S)-5-(5-amino-3-methyl-2-(trifluoromethyl)phenyl)-4-fluoro-2-(((2S,4R)-4-fluoro-1-methylpyrrolidin-2-yl)methoxy)-9-methyl-8,9-dihydro-10H-7-oxa-1,3,6,10-tetraazacyclohepta[de]naphthalen-10-yl)ethyl)pyridin-2-amine]
100 nM	2 nM	5 nM	CC(c1cccnc1N)N1CCOc2nc(-c3cc(O)cc4ccc(F)c(F)c34)c(F)c3nc(OC[C@@H]4CC(F)(F)CN4C)nc1c23 (single isomer, unassigned) [Compound 51, 4-(10-((R or S)-1-(2-aminopyridin-3-yl)ethyl)-2-(((S)-4,4-difluoro-1-methylpyrrolidin-2-yl)methoxy)-4-fluoro-9,10-dihydro-8H-7-oxa-1,3,6,10-tetraazacyclohepta[de]naphthalen-5-yl)-5,6-difluoronaphthalen-2-ol]
1 nM	0.3 nM	0.4 nM	Cc1c(F)c(N)cc(-c2nc3c4c(nc(OC[C@@]56CCCN5C[C@H](F)C6)nc4c2F)N(C(C)c2cccnc2N)CCO3)c1C(F)(F)F (stereo partly drawn) [Compound 120]
> 1000 nM	> 1000 nM	> 1000 nM	CC(c1cccnc1N)N1CCOc2nc(-c3cc(O)cc(Cl)c3C3CC3)c(F)c3nc(OC[C@@]45CCCN4C[C@H](F)C5)nc1c23 (single isomer, unassigned) [Compound 43, 3-(10-((R or S)-1-(2-aminopyridin-3-yl)ethyl)-4-fluoro-2-(((2R,7aS)-2-fluorotetrahydro-1H-pyrrolizin-7a(5H)-yl)methoxy)-9,10-dihydro-8H-7-oxa-1,3,6,10-tetraazacyclohepta[de]naphthalen-5-yl)-5-chloro-4-cyclopropylphenol]
